# Assay results reported in US6737383B1, “Herbicidal oxadiazolidines” (priority 1999, dated 2004).
# Tests used:
# rape = assay: Test B pre/postemergence rape; type: in vivo, Brassica napus; details: for Rape plant response rating (0 to 10 scale): 0 is no effect
# Method in brief: (§1)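 Test chemicals in a non-phytotoxic solvent mixture with surfactant were sprayed preemergence onto planted seeds and postemergence onto plants 2 to 18 cm tall (1- to 4-leaf stage). After twelve to sixteen days in a greenhouse, injury was visually rated against untreated controls from 0 (no effect) to 10 (complete control).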
# Italian ryegrass = assay: Test E Italian ryegrass; type: in vivo, Lolium multiflorum; details: Preemergence; for I. Ryegrass plant response rating (0 to 100 scale): Rate 250 g/ha; for Plant response rating, I. Ryegrass: 0 to 100 scale where 0 is no effect and 100 is complete control
# winter wheat [1] = assay: Test E winter wheat; type: in vivo, Triticum aestivum; details: Preemergence; for Wheat (winter) plant response rating (0 to 100 scale): Rate 250 g/ha
# winter barley = assay: Test E winter barley; type: in vivo, Hordeum vulgare; details: Preemergence; for Barley (winter) plant response rating (0 to 100 scale): Rate 250 g/ha
# bamyardgrass = assay: Test B flood test barnyardgrass; type: in vivo, Echinochloa crus-galli
# Method in brief: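 Plants were grown to the 2-leaf stage before treatment with test chemical, then held in a greenhouse for twelve to sixteen days. Injury was visually rated against untreated controls on a 0–10 scale, where 0 is no effect and 10 is complete control.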
# winter wheat [2] = assay: Test E winter wheat; type: in vivo, Triticum aestivum; details: Postemergence; for Plant response rating, Wheat (winter): 0 to 100 scale
# Method in brief: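 Postemergence: spray at 1–4 leaf stage, soil 60:40 sandy loam:potting mix; solvent + surfactant formulation; greenhouse 21–28 d; visual injury vs untreated controls.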
# velvetleaf = assay: Test B pre/postemergence velvetleaf; type: in vivo, Abutilon theophrasti
# Method in brief: as §1
# green foxtail = assay: Test E green foxtail; type: in vivo, Setaria viridis; details: Preemergence; for Green foxtail plant response rating (0 to 100 scale): Rate 250 g/ha
# wheat = assay: Test B pre/postemergence wheat; type: in vivo, Triticum aestivum
# Method in brief: as §1
# blackgrass = assay: Test E blackgrass; type: in vivo, Alopecurus myosuroides; details: Preemergence; for Blackgrass plant response rating (0 to 100 scale): Rate 250 g/ha
# wild oat = assay: Test E wild oat; type: in vivo, Avena fatua; details: Preemergence; for Wild oat plant response rating (0 to 100 scale): Rate 250 g/ha
# [3] = Preemergence, Rate 62 g/ha, scale of 0 to 10 where 0 is no effect and 10 is complete control
# [4] = Preemergence, Rate 125 g/ha, 10 is complete control
# [5] = Preemergence, Rate 250 g/ha, scale 0 to 10, 0 is no effect, 10 is complete control
# [6] = Preemergence, Rate 500 g/ha, scale 0 to 10 (0 no effect, 10 complete control)
# [7] = Rate 62 g/ha, Postemergence, scale of 0 to 10 where 0 is no effect and 10 is complete control
# [8] = Rate 250 g/ha, Postemergence, scale 0 to 10, 0 is no effect, 10 is complete control
# [9] = Rate 500 g/ha, Postemergence, scale 0 to 10
# [10] = Rate 500 g/ha, 0 to 100 scale where 0 is no effect and 100 is complete control
# [11] = Rate 1000 g/ha, 0 to 100 scale where 0 is no effect and 100 is complete control
# [12] = Rate 62 g/ha, headed Pre-emergence (flood test species), scale 0 to 10 (0 no effect, 10 complete control)
# [13] = Rate 125 g/ha, Pre-emergence, flood test species, scale 0 to 10 where 0 is no effect and 10 is complete control
# [14] = Rate 250 g/ha, Pre-emergence, flood-test species, scale 0 to 10, 0 is no effect, 10 is complete control
# [15] = Rate 500 g/ha, headed Pre-emergence (flood test species), scale 0 to 10 (0 no effect, 10 complete control)
# [16] = Rate 1000 g/ha, 0 is no effect and 100 is complete control
# [17] = Preemergence, Rate 125 g/ha, 0 is no effect, 10 is complete control
# [18] = Preemergence, Rate 500 g/ha, scale of 0 to 10 where 0 is no effect and 10 is complete control
# [19] = Rate 125 g/ha, Postemergence, scale 0 to 10
# [20] = Rate 500 g/ha, 0 is no effect, 100 is complete control
# [21] = Preemergence, Rate 250 g/ha, scale of 0 to 10 where 0 is no effect and 10 is complete control
# [22] = Rate 125 g/ha, Preemergence, scale of 0 to 10 where 0 is no effect and 10 is complete control
# [23] = Rate 125 g/ha, 0 to 100 scale (0 no effect, 100 complete control)
smiles,measurement,setting,value
CC(C)N(Cc1ccccc1)C(=O)n1oc(=O)n(C(C)C)c1=O [Compound 165],Rape plant response rating,"rape; Postemergence, Rate 125 g/ha, scale of 0 to 10 where 0 is no effect and 10 is complete control",0
same,Rape plant response rating,rape; [3],0
same,Rape plant response rating (0 to 10 scale),rape; [4],0
same,Rape plant response rating,rape; [5],4
same,Rape plant response rating,rape; [6],10
same,Rape plant response rating,rape; [7],0
same,"Plant response rating, Rape",rape; [8],0
same,Rape plant response rating,rape; [9],2
same,I. Ryegrass plant response rating (0 to 100 scale),Italian ryegrass,60
same,"Plant response rating, I. Ryegrass",Italian ryegrass; Rate 500 g/ha,55
same,"Plant response rating, I. Ryegrass",Italian ryegrass; Rate 1000 g/ha,70
same,Wheat (winter) plant response rating (0 to 100 scale),winter wheat [1],40
same,"Plant response rating, Wheat (winter)",winter wheat [1]; [10],50
same,"Plant response rating, Wheat (winter)",winter wheat [1]; [11],70
same,Barley (winter) plant response rating (0 to 100 scale),winter barley,20
same,"Plant response rating, Barley (winter)",winter barley; [10],55
same,"Plant response rating, Barley (winter)",winter barley; [11],50
same,Barnyardgrass plant response rating,bamyardgrass; [12],0
same,Barnyardgrass plant response rating,bamyardgrass; [13],0
same,Barnyardgrass plant response rating,bamyardgrass; [14],0
same,"Plant response rating, Barnyardgrass",bamyardgrass; [15],1
same,"Plant response rating, Wheat (winter)",winter wheat [2]; [16],85
same,"Plant response rating, Wheat (winter)","winter wheat [2]; Rate 500 g/ha, 0 no effect, 100 complete control",65
same,Wheat (winter) plant response rating,"winter wheat [2]; Rate 250 g/ha, 0 to 100 scale where 0 is no effect and 100 is complete control",40
same,Velvetleaf plant response rating,velvetleaf; [3],0
same,Velvetleaf plant response rating (0 to 10 scale),velvetleaf; [17],1
same,Velvetleaf plant response rating,velvetleaf; [5],4
same,Velvetleaf plant response rating,velvetleaf; [6],4
same,"Plant response rating, Velvetleaf",velvetleaf; [8],1
same,Velvetleaf plant response rating,velvetleaf; [9],1
same,Green foxtail plant response rating (0 to 100 scale),green foxtail,50
same,"Plant response rating, Green foxtail",green foxtail; [10],55
same,"Plant response rating, Green foxtail",green foxtail; [11],65
same,Wheat plant response rating,wheat; [3],0
same,Wheat plant response rating (0 to 10 scale),wheat; [17],0
same,Wheat plant response rating,wheat; [5],0
same,Wheat plant response rating,wheat; [6],2
same,"Plant response rating, Wheat",wheat; [8],2
same,Wheat plant response rating,wheat; [9],3
same,Blackgrass plant response rating (0 to 100 scale),blackgrass,40
same,"Plant response rating, Blackgrass",blackgrass; [10],60
same,"Plant response rating, Blackgrass",blackgrass; [11],100
same,Wild oat plant response rating (0 to 100 scale),wild oat,55
same,"Plant response rating, Wild oat",wild oat; [10],60
same,"Plant response rating, Wild oat",wild oat; [11],70
CC(C)N(C(=O)n1oc(=O)n(-c2ccc(OC(F)(F)F)cc2)c1=O)c1ccc(F)cc1 [Compound 202],Rape plant response rating,rape; [3],0
same,Rape plant response rating (0 to 10 scale),rape; [4],0
same,Rape plant response rating,rape; [5],0
same,"Plant response rating, Rape",rape; [18],0
same,Rape plant response rating,rape; [7],1
same,Rape plant response rating,rape; [19],1
same,"Plant response rating (0 to 10; 0 is no effect, 10 is complete control), Rape","rape; Rate 250 g/ha, Postemergence",1
same,Rape plant response rating,rape; [9],4
same,I. Ryegrass plant response rating (0 to 100 scale),Italian ryegrass,30
same,"Plant response rating, I. Ryegrass",Italian ryegrass; Rate 500 g/ha,60
same,"Plant response rating, I. Ryegrass",Italian ryegrass; Rate 1000 g/ha,60
same,Wheat (winter) plant response rating (0 to 100 scale),winter wheat [1],50
same,"Plant response rating, Wheat (winter)",winter wheat [1]; [10],40
same,"Plant response rating, Wheat (winter)",winter wheat [1]; [11],70
same,Barley (winter) plant response rating (0 to 100 scale),winter barley,20
same,"Plant response rating, Barley (winter)",winter barley; [10],40
same,"Plant response rating, Barley (winter)",winter barley; [11],70
same,Barnyardgrass plant response rating,bamyardgrass; [12],0
same,Barnyardgrass plant response rating,bamyardgrass; [13],0
same,Barnyardgrass plant response rating,bamyardgrass; [14],0
same,"Plant response rating, Barnyardgrass",bamyardgrass; [15],0
same,"Plant response rating, Wheat (winter)",winter wheat [2]; [16],60
same,"Plant response rating, Wheat (winter)",winter wheat [2]; [20],55
same,Velvetleaf plant response rating,velvetleaf; [3],0
same,Velvetleaf plant response rating,velvetleaf; [5],6
same,"Plant response rating, Velvetleaf",velvetleaf; [18],1
same,Velvetleaf plant response rating,velvetleaf; [7],0
same,Velvetleaf plant response rating,velvetleaf; [19],0
same,"Plant response rating (0 to 10; 0 is no effect, 10 is complete control), Velvetleaf","velvetleaf; Rate 250 g/ha, Postemergence",0
same,Green foxtail plant response rating (0 to 100 scale),green foxtail,70
same,"Plant response rating, Green foxtail",green foxtail; [10],85
same,"Plant response rating, Green foxtail",green foxtail; [11],100
same,Wheat plant response rating,wheat; [3],0
same,Wheat plant response rating,wheat; [5],0
same,"Plant response rating, Wheat",wheat; [18],2
same,Wheat plant response rating,wheat; [7],0
same,Wheat plant response rating,wheat; [19],0
same,"Plant response rating (0 to 10; 0 is no effect, 10 is complete control), Wheat","wheat; Rate 250 g/ha, Postemergence",0
same,Blackgrass plant response rating (0 to 100 scale),blackgrass,30
same,"Plant response rating, Blackgrass",blackgrass; [10],50
same,"Plant response rating, Blackgrass",blackgrass; [11],30
same,Wild oat plant response rating (0 to 100 scale),wild oat,50
same,"Plant response rating, Wild oat",wild oat; [10],60
same,"Plant response rating, Wild oat",wild oat; [11],80
CC(=O)OCCCCn1c(=O)on(C(=O)N(c2ccc(F)cc2)C(C)C)c1=O [Compound 211],Rape plant response rating,rape; [3],0
same,Rape plant response rating,rape; [21],0
same,"Plant response rating, Rape",rape; [18],4
same,Rape plant response rating,rape; [7],2
same,Rape plant response rating,rape; [19],2
same,Rape plant response rating,rape; [22],0
same,"Plant response rating (0 to 10; 0 is no effect, 10 is complete control), Rape","rape; Rate 250 g/ha, Postemergence",2
same,Rape plant response rating,rape; [9],3
same,I. Ryegrass plant response rating (0 to 100 scale),Italian ryegrass,0
same,"Plant response rating, I. Ryegrass",Italian ryegrass; Rate 500 g/ha,10
same,"Plant response rating, Wheat (winter)",winter wheat [1]; [23],50
same,Wheat (winter) plant response rating (0 to 100 scale),winter wheat [1],35
same,"Plant response rating, Wheat (winter)",winter wheat [1]; [10],30
same,"Plant response rating, Barley (winter)",winter barley; [23],10
same,Barley (winter) plant response rating (0 to 100 scale),winter barley,20
same,"Plant response rating, Barley (winter)",winter barley; [10],10
same,Barnyardgrass plant response rating,bamyardgrass; [12],0
same,Barnyardgrass plant response rating,bamyardgrass; [13],0
same,Barnyardgrass plant response rating,bamyardgrass; [14],0
same,Barnyardgrass plant response rating,"bamyardgrass; Rate 500 g/ha, Pre-emergence, flood test species, scale 0 to 10 (0 no effect, 10 complete control)",0
same,"Plant response rating, Wheat (winter)","winter wheat [2]; Rate 125 g/ha, 0 is no effect, 100 is complete control",20
same,"Plant response rating, Wheat (winter)",winter wheat [2]; [20],40
same,Velvetleaf plant response rating,velvetleaf; [3],0
same,Velvetleaf plant response rating,velvetleaf; [21],0
same,"Plant response rating, Velvetleaf",velvetleaf; [18],0
same,Velvetleaf plant response rating,velvetleaf; [7],0
same,Velvetleaf plant response rating,velvetleaf; [19],0
same,Velvetleaf plant response rating,velvetleaf; [22],0
same,"Plant response rating (0 to 10; 0 is no effect, 10 is complete control), Velvetleaf","velvetleaf; Rate 250 g/ha, Postemergence",1
same,"Plant response rating, Green foxtail",green foxtail; [23],0
same,Green foxtail plant response rating (0 to 100 scale),green foxtail,10
same,"Plant response rating, Green foxtail",green foxtail; [10],20
same,Wheat plant response rating,wheat; [3],0
same,Wheat plant response rating,wheat; [21],0
same,"Plant response rating, Wheat",wheat; [18],5
same,Wheat plant response rating,wheat; [7],0
same,Wheat plant response rating,wheat; [19],0
same,Wheat plant response rating,wheat; [22],0
same,"Plant response rating (0 to 10; 0 is no effect, 10 is complete control), Wheat","wheat; Rate 250 g/ha, Postemergence",0
same,"Plant response rating, Blackgrass",blackgrass; [23],0
same,Blackgrass plant response rating (0 to 100 scale),blackgrass,0
same,"Plant response rating, Blackgrass",blackgrass; [10],50
same,"Plant response rating, Wild oat",wild oat; [23],20
same,"Plant response rating, Wild oat",wild oat; [10],40
